Source: BindingDB's records for doi:10.1021/jm00087a004 (Harvard Medical School, 1992)

How the values were obtained:
[1] = Binding affinity towards Opioid receptor delta 1
[2] = Binding affinity towards Opioid receptor delta 1; remark: listed apart in the source

| SMILES | Ki [1] | Ki [2] |
| --- | --- | --- |
| CN1CCC2(c3cccc(O)c3)CCCC1[C@H]2O (stereo partly drawn) | 420 nM |  |
| CN1CCC2(c3cccc(O)c3)CCCC1C2 (stereo not drawn) |  | > 500 nM |
| CN1CCC2(c3cccc(O)c3)CCCC1[C@@H]2O (stereo partly drawn) | > 500 nM |  |
